One may read the MIC as the lowest concentration found to suppress growth.

Values after ≈ are worked out from the molar mass of the structure shown. Bounds are passed on as bounds.

Common to all, as to format: functional
Assay [1] concerns Enterococcus faecalis. As to the kind of experiment: Antibacterial activity against vancomycin-resistant Enterococcus faecalis ATCC51299 assessed as bacterial growth inhibition incubated for 20 hrs by CLSI based broth microdilution method.
Assay [2] concerns Staphylococcus aureus. Briefly: Antibacterial activity against Staphylococcus aureus clinical isolate assessed as bacterial growth inhibition incubated for 20 hrs by CLSI based broth microdilution method. A general note: Dilution methods test growth across graded concentrations, often in twofold steps.
The test system of a further assay is Acinetobacter baumannii. Briefly: Antibacterial activity against Acinetobacter baumannii ATCC19606 assessed as bacterial growth inhibition incubated for 20 hrs by CLSI based broth microdilution method.
Assay [3] concerns Escherichia coli. Briefly: Antibacterial activity against wild-type Escherichia coli BW25113 assessed as bacterial growth inhibition incubated for 20 hrs by CLSI based broth microdilution method.
Assay [4] concerns Escherichia coli. As to the kind of experiment: Antibacterial activity against penicillin-susceptible Escherichia coli ATCC25922 assessed as bacterial growth inhibition incubated for 20 hrs by CLSI based broth microdilution method.
For assay [5], the system named is Streptococcus pyogenes. As to the kind of experiment: Antibacterial activity against erythromycin-resistant Streptococcus pyogenes 2 clinical isolate assessed as bacterial growth inhibition incubated for 20 hrs by CLSI based broth microdilution method.
In assay [6] the test system is Enterococcus faecalis. As to the kind of experiment: Antibacterial activity against vancomycin-susceptible Enterococcus faecalis ATCC29212 assessed as bacterial growth inhibition incubated for 20 hrs by CLSI based broth microdilution method.
For assay [7], the system named is Staphylococcus epidermidis. Briefly: Antibacterial activity against penicillin-resistant Staphylococcus epidermidis clinical isolate assessed as bacterial growth inhibition incubated for 20 hrs by CLSI based broth microdilution method.
A further assay deals with Klebsiella pneumoniae. Briefly: Antibacterial activity against Klebsiella pneumoniae ATCC BAA-1902 assessed as bacterial growth inhibition incubated for 20 hrs by CLSI based broth microdilution method.
Assay [8] concerns Staphylococcus aureus. Briefly: Antibacterial activity against methicillin-resistant Staphylococcus aureus ATCC43300 assessed as bacterial growth inhibition incubated for 20 hrs by CLSI based broth microdilution method.
Another assay has as its system Bacillus pumilus. As to the kind of experiment: Antibacterial activity against penicillin-susceptible Bacillus pumilus CMCC63202 assessed as bacterial growth inhibition incubated for 20 hrs by CLSI based broth microdilution method.
In assay [9] the test system is Staphylococcus aureus. Briefly: Antibacterial activity against erythromycin-susceptible Staphylococcus aureus ATCC25923 assessed as bacterial growth inhibition incubated for 20 hrs by CLSI based broth microdilution method.
For assay [10], the system named is Enterococcus faecium. As to the kind of experiment: Antibacterial activity against vancomycin-susceptible Enterococcus faecium ATCC19434 assessed as bacterial growth inhibition incubated for 20 hrs by CLSI based broth microdilution method.
Assay [11] has as its system Staphylococcus aureus. As to the kind of experiment: Antibacterial activity against penicillin-resistant Staphylococcus aureus ATCC31007 assessed as bacterial growth inhibition incubated for 20 hrs by CLSI based broth microdilution method.
The test system of assay [12] is Enterococcus faecium. As to the kind of experiment: Antibacterial activity against vancomycin-resistant Enterococcus faecium ATCC51559 assessed as bacterial growth inhibition incubated for 20 hrs by CLSI based broth microdilution method.
The next assay concerns Bacillus subtilis. Briefly: Antibacterial activity against penicillin-susceptible Bacillus subtilis ATCC9372 assessed as bacterial growth inhibition incubated for 20 hrs by CLSI based broth microdilution method.
The test system of assay [13] is Streptococcus pyogenes. As to the kind of experiment: Antibacterial activity against erythromycin-susceptible Streptococcus pyogenes 1 assessed as bacterial growth inhibition incubated for 20 hrs by CLSI based broth microdilution method.

For `CC1(C)S[C@@H]2[C@H](NC(=O)[C@H](NC(=O)N3CCN(S(C)(=O)=O)C3=O)c3ccccc3)C(=O)N2[C@H]1C(=O)O` [MEZLOCILLIN], the MIC was > 64 µg/mL in the assay with Enterococcus faecalis [1]; 32 µg/mL (≈ 59.3 µM) in the assay with Staphylococcus aureus [2]; 64 µg/mL (≈ 119 µM) in the assay with Acinetobacter baumannii; 1 µg/mL (≈ 1.85 µM) with Escherichia coli [3]; 1 µg/mL (≈ 1.85 µM) in the assay with Escherichia coli [4]; < 0.062 µg/mL in the assay with Streptococcus pyogenes [5]. In addition, the MIC was 2 µg/mL (≈ 3.71 µM) in the assay on Enterococcus faecalis [6]; > 64 µg/mL in assay [7]; > 64 µg/mL in the assay with Klebsiella pneumoniae; 16 µg/mL (≈ 29.7 µM) in the assay on Staphylococcus aureus [8]; 2 µg/mL (≈ 3.71 µM) in the assay on Bacillus pumilus; 1 µg/mL (≈ 1.85 µM) with Staphylococcus aureus [9]. For the same compound, the MIC in the assay with Enterococcus faecium [10] was 16 µg/mL (≈ 29.7 µM); in the assay with Staphylococcus aureus [11], > 64 µg/mL; in the assay on Enterococcus faecium [12] it was > 64 µg/mL; in the assay with Bacillus subtilis it was 4 µg/mL (≈ 7.41 µM); with Streptococcus pyogenes [13] it was < 0.062 µg/mL.
For `C[n+]1cc(-c2ccccc2)cc(/C=C/c2ccccc2[N+](=O)[O-])c1-c1ccccc1.I`, the MIC with Enterococcus faecalis [1] is > 64 µg/mL; with Staphylococcus aureus [2], 32 µg/mL; in the assay on Acinetobacter baumannii, 64 µg/mL; with Escherichia coli [3], > 64 µg/mL; in the assay with Escherichia coli [4] it was > 64 µg/mL; in the assay with Streptococcus pyogenes [5], 16 µg/mL. Moreover, the MIC in the assay with Enterococcus faecalis [6] is > 64 µg/mL; in [7], 64 µg/mL; in the assay with Klebsiella pneumoniae, > 64 µg/mL; in the assay on Staphylococcus aureus [8], 32 µg/mL; in the assay on Bacillus pumilus, 64 µg/mL; with Staphylococcus aureus [9] it was 8 µg/mL. Besides, the MIC was > 64 µg/mL with Enterococcus faecium [10]; > 64 µg/mL with Staphylococcus aureus [11]; > 64 µg/mL in the assay with Enterococcus faecium [12]; 16 µg/mL in the assay on Bacillus subtilis; 16 µg/mL with Streptococcus pyogenes [13].
In the case of `C[n+]1cc(-c2ccccc2)c(/C=C/c2ccc(C(C)(C)C)cc2)cc1-c1ccc2ccccc2c1.[I-]`, the MIC with Enterococcus faecalis [1] is 2 µg/mL; in the assay with Staphylococcus aureus [2] it was 0.5 µg/mL; with Acinetobacter baumannii, 1 µg/mL; in the assay with Escherichia coli [3], 4 µg/mL; in the assay with Escherichia coli [4], 64 µg/mL; with Streptococcus pyogenes [5], 4 µg/mL. In addition, the MIC came out at 1 µg/mL in the assay with Enterococcus faecalis [6]; 2 µg/mL in assay [7]; 8 µg/mL in the assay with Klebsiella pneumoniae; 1 µg/mL in the assay with Staphylococcus aureus [8]; 0.5 µg/mL in the assay with Bacillus pumilus; 1 µg/mL in the assay with Staphylococcus aureus [9]. Moreover, the MIC with Enterococcus faecium [10] stood at 2 µg/mL; in the assay with Staphylococcus aureus [11], 2 µg/mL; with Enterococcus faecium [12], 2 µg/mL; with Bacillus subtilis, 0.5 µg/mL; in the assay on Streptococcus pyogenes [13] it was 1 µg/mL.
With `C[n+]1cc(-c2ccccc2)c(/C=C/c2ccc(O)cc2)cc1-c1ccccc1.[I-]`, the MIC in the assay with Enterococcus faecalis [1] is 64 µg/mL; in the assay on Staphylococcus aureus [2], 16 µg/mL; in the assay on Acinetobacter baumannii, 32 µg/mL; with Escherichia coli [3], > 64 µg/mL; in the assay with Escherichia coli [4] it was > 64 µg/mL; in the assay with Streptococcus pyogenes [5], 16 µg/mL. Besides, the MIC in the assay on Enterococcus faecalis [6] worked out at 64 µg/mL; in assay [7], 16 µg/mL; in the assay with Klebsiella pneumoniae, 64 µg/mL; in the assay with Staphylococcus aureus [8] it was 32 µg/mL; in the assay on Bacillus pumilus, 32 µg/mL; in the assay on Staphylococcus aureus [9] it was 2 µg/mL. Further, the MIC with Enterococcus faecium [10] is 64 µg/mL; in the assay with Staphylococcus aureus [11], 64 µg/mL; in the assay with Enterococcus faecium [12], 64 µg/mL; in the assay on Bacillus subtilis, 8 µg/mL; with Streptococcus pyogenes [13], 4 µg/mL.
As for `Cc1ccc(/C=C/c2cc(-c3ccc(C(C)(C)C)cc3)[n+](C)cc2-c2ccccc2C)cc1.[I-]`, the MIC in the assay on Enterococcus faecalis [1] stood at 2 µg/mL; in the assay with Staphylococcus aureus [2] it was 0.5 µg/mL; in the assay with Acinetobacter baumannii it was 4 µg/mL; in the assay on Escherichia coli [3] it was 8 µg/mL; in the assay on Escherichia coli [4], 8 µg/mL; with Streptococcus pyogenes [5], 4 µg/mL. Besides, the minimal inhibitory concentration (MIC) in the assay on Enterococcus faecalis [6] is 4 µg/mL; in assay [7], 2 µg/mL; in the assay on Klebsiella pneumoniae it was 8 µg/mL; with Staphylococcus aureus [8], 0.5 µg/mL; in the assay on Bacillus pumilus, 1 µg/mL; in the assay with Staphylococcus aureus [9] it was 1 µg/mL. Besides, the MIC was determined as 2 µg/mL in the assay with Enterococcus faecium [10]; 2 µg/mL in the assay on Staphylococcus aureus [11]; 2 µg/mL in the assay on Enterococcus faecium [12]; 0.5 µg/mL in the assay on Bacillus subtilis; 2 µg/mL in the assay on Streptococcus pyogenes [13].

Values taken from ChEMBL document CHEMBL5537115, “New broad-spectrum and potent antibacterial agents with dual-targeting mechanism: Promoting FtsZ polymerization and disrupting bacterial membranes” (Eur J Med Chem, 2024).
